Ends that are not written are not given here.
Assays:
HUVECs = test: Annexin V-FITC/PI staining, flow cytometry (apoptosis); type: cell-based, human; conditions: 320 μmol/L, 24 h; for induction of apoptosis: Hoechst and Annexin V-FITC/PI staining; for total apoptotic rate (Q1-UR and Q1-LR): mean ± SD, n = 3, control (7.17 ± 1.42)%
Protocol: HUVECs were seeded into 6-well culture plates (3 × 10^5 cells/well). […] After discarding the supernatant and washing with cold PBS, the cells were fixed in 4% paraformaldehyde and stained with Hoechst 33,258 for 10 min. Then, the cells were washed with cold PBS and observed using an inverted fluorescence microscope. HUVECs were treated with different peptides (the methods were the same as the Hoechst staining). After 24 h, cells were collected by trypsin digestion and washed with PBS. Annexin V-FITC/PI staining was conducted according to the manufacturer’s instructions for the Apoptosis Detection Kit. Briefly, 195 μL of Annexin V-FITC/PI dilution buffer was added to resuspend the cells. Then, 5 μL of Annexin V-FITC and 10 μL of PI staining solutions were added and gently mixed with the cells. After incubation at room temperature in the dark for 10 min, the apoptotic cells were detected by flow cytometry.

VEGFR-2 = type: binding, human; conditions: peptide 256 and 1000 nmol/L; VEGF-A165 0.5-8 nmol/L; CM5 chip; HBS-EP
Protocol: To determine the effect of TAT-AT7 in competition with VEGF-A165 binding to VEGFR-2 or NRP-1, the SPR assay was conducted. The whole operation was conducted on a Biacore S200 instrument. The recombinant VEGFR-2 or NRP-1 proteins were firstly immobilized on a CM5 chip by an amine-coupling reaction. VEGF-A165 ligands with gradient concentrations in the absence or presence of different peptides were then flowed over the CM5 chip. The binding of VEGF-A165 ligands to the immobilized recombinant VEGFR-2 or NRP-1 proteins led to an increase of the refractive index on the surface of the chip, which could be converted into the fluctuation of electrical signals in the response (RU). As the concentration of VEGF-A165 was higher, the response value was also higher. However, with the addition of different peptides, the response value decreased to different degrees (Figure 3A and Figure 4A).
(TAT), ATWLPPR (AT7), and […] (TAT-AT7) were synthesized from China Peptides Co., Ltd. (Shanghai, China). The Hoechst 33,258 staining kit, Annexin V-FITC/PI apoptosis detection kit, and BCA protein assay kit were obtained from Beyotime Biotechnology (Nantong, China). The total protein extraction kit was from BestBio (Shanghai, China). The CM5 sensor chip was obtained from GE Healthcare Life Sciences (Uppsala, Sweden). Purified recombinant human VEGFR-2 and NRP-1 receptor proteins were purchased from R&D Systems (Minneapolis, MN, USA). Recombinant human endothelial growth factor-A165 (VEGF-A165) was obtained from PeproTech (Rocky Hill, NJ, USA). Anti-ERK1/2, anti-p-ERK1/2, anti-p-VEGFR-2, anti-AKT, anti-p-AKT, anti-p-SRC, anti-p-FAK, anti-p38 MAPK, anti-p-p38 MAPK, anti-p-PLC-γ, and anti-GAPDH antibodies were purchased from Cell Signaling Technology (Danvers, MA, USA). Anti-VEGFR-2, anti-FAK, and anti-SRC were purchased from Proteintech Group, Inc (Wuhan, China). F-12K medium, heparin, and endothelial cell growth supplement (ECGS) were from Macgene (Beijing, China). DMEM medium and fetal bovine serum (FBS) were obtained from Gibco®, Life Technologies (Carlsbad, CA, USA). […]

[1] = system: zebrafish embryo intersegmental vessel; test: Zebrafish embryo intersegmental vessel angiogenesis; type: in vivo; conditions: 25 µmol/L; 24 h; 28 °C; fluorescence microscope; vs control; n = 3
Protocol: After a certain period, healthy, sexually mature female and male zebrafish were mated in a 1:1 ratio. After 24 h, the fertilized eggs were removed, disinfected, and washed, and then placed in embryo culture water and cultured in an incubator at 28 °C for 24 h. The fertilized eggs were washed with chain enzyme protease E solution (1 mg/mL) to remove the egg membrane on the surface and placed under a microscope to observe and select the normally developing zebrafish embryos, and then placed into a 24-well plate. […] The control group was added with the same volume of embryo culture water, and then placed in an incubator at 28 °C for 24 h. Zebrafish embryos were randomly removed from each group and observed under a fluorescence microscope. The total length of zebrafish internode vessels was calculated and counted.

[2] = system: intracranial U87-mCherry-luc glioma; test: In vivo anti-glioma study (bioluminescence); set-up: species or system nude mice; conditions: 20 mg/kg/day i.v. (tail vein), 11 days; days 4, 7, 11, 14; n = 5
Protocol: The orthotopic U87-mCherry-luc glioma-bearing nude mice were randomly assigned to 6 groups (n = 5) according to the bioluminescence intensity of glioma measured on day 4. […] The bioluminescence intensity was measured on days 4, 7, 11, and 14, respectively. Nude mice were weighed daily. On day 15, the mice were sacrificed, and the glioma-bearing brains were harvested. The brain tissues were fixed with 4.0% paraformaldehyde, embedded in paraffin, and cut into slices. The TUNEL staining and CD31 immunohistochemical staining were conducted according to standard histological procedures.

NRP-1 = conditions: for inhibition of binding of VEGF-A165 and NRP-1: peptide 1000 nmol/L
Protocol: The SPR assay was performed using the Biacore S200 instrument (GE Healthcare, Uppsala, Sweden). Firstly, the CM5 sensor chip was activated with EDC/NHS. Then, the recombinant VEGFR-2 and NRP-1 proteins were immobilized on the surface of the sensor chip according to the operating instructions of amine coupling. VEGF-A165 was diluted to 8, 4, 2, 1, and 0.5 nmol/L in different concentrations of peptide solution dissolved by HBS-EP buffer (0, 0.016, 0.064, 0.256, and 1 μmol/L, respectively). The Kinetics/Affinity program was selected, and the automatic continuous injection program was set. The injection flow rate was 30 μL/min, the injection time was 120 s, and the dissociation time was 220 s. At the same time, zero-concentration injection wells and 0.5 nmol/L repeat-concentration injection wells of VEGF-A165 were set. At the end of each injection, the channels were flushed with glycine-HCl solution for 30 s until response values were returned to baseline.

[3] = VEGF-A165 0.5-8 nmol/L, CM5 chip, HBS-EP

Compound | induction of apoptosis (HUVECs) | total apoptotic rate (Q1-UR and Q1-LR) (HUVECs) [%] | effect on VEGF-A165 and VEGFR-2 binding (RU) (VEGFR-2) | intersegmental vascular growth [1] | glioma growth (bioluminescence) [2] | inhibition of VEGF-A165 binding to NRP-1 relative to VEGFR-2 (NRP-1; SPR, NRP-1 compared with VEGFR-2) | inhibitory effect on VEGF-A165/NRP-1 binding, comparison between peptides (NRP-1; [3]) | binding curve of VEGF-A165 and NRP-1 (NRP-1; peptide 256 nmol/L, VEGF-A165 0.5-8 nmol/L, CM5 chip, HBS-EP) | inhibition of binding of VEGF-A165 and NRP-1 (NRP-1; [3])
CC(C)C[C@H](NC(=O)[C@H](Cc1c[nH]c2ccccc12)NC(=O)[C@@H](NC(=O)[C@H](C)NC(=O)[C@H](CS)NC(=O)[C@H](CCCNC(=N)N)NC(=O)[C@H](CCCNC(=N)N)NC(=O)[C@H](CCCNC(=N)N)NC(=O)[C@H](CCC(N)=O)NC(=O)[C@H](CCCNC(=N)N)NC(=O)[C@H](CCCNC(=N)N)NC(=O)[C@H](CCCCN)NC(=O)[C@H](CCCCN)NC(=O)[C@@H](N)CCCNC(=N)N)[C@@H](C)O)C(=O)N1CCC[C@H]1C(=O)N1CCC[C@H]1C(=O)N[C@@H](CCCNC(=N)N)C(=O)O [TAT-AT7] | strongly induced HUVECs’ apoptosis | 29.56 ± 3.07 | significantly reduced the RU value | significantly inhibit the generation of the zebrafish embryo intersegmental vessel | significantly suppressed glioma growth on days 11 and 14 | stronger inhibitory effect on the binding of VEGF-A165 to NRP-1 | much higher than that of AT7 and TAT | tended to be a zero baseline | completely inhibited the binding of VEGF-A165 and NRP-1
ATWLPPR [AT7, ATWLPPR] | no obvious effect of promoting apoptosis | 7.80 ± 1.50 | less inhibitory effects on VEGF-A165 and VEGFR-2 binding than TAT-AT7 | no obvious effect on intersegmental vascular growth | no significant difference compared to the control group | – | – | – | displayed inhibitory effects on the binding of VEGF-A165 and NRP-1, but it did not completely inhibit the binding

Reference: publication PMC10218704, “A Novel Blood–Brain Barrier-Penetrating and Vascular-Targeting Chimeric Peptide Inhibits Glioma Angiogenesis” (International Journal of Molecular Sciences, 2023)
